According to ChEMBL document CHEMBL1155606, “Stolonic acids A and B, new cytotoxic cyclic peroxides from an Indian Ocean ascidian Stolonica species” (J Nat Prod, 2000):
In brackets after ≈: the same amount, converted by molar mass.

What was measured:
OVCAR-3 = assay: Cytotoxicity against human OVCAR-3 cells after 48 hrs; assay type: functional, cell-based; details: OVCAR-3, 48 h
[1] = Cytotoxicity against human LOX cells after 48 hrs; assay type: functional, cell-based

Row | Compound | IC50 (OVCAR-3) [µg/mL] | IC50 [1] [µg/mL]
1 | CCCC/C=C/C=C/CCCCCCCC[C@@H]1CC[C@@H]([C@@H]2CC[C@@H](CC(=O)O)OO2)O1 [STOLONIC ACID A] | 0.1 (≈ 0.229 µM) | 0.05 (≈ 0.115 µM)
2 | CCCC/C=C\C=C/CCCCCCCC[C@@H]1CC[C@@H]([C@@H]2CC[C@@H](CC(=O)O)OO2)O1 [STOLONIC ACID B] | 0.1 (≈ 0.229 µM) | 0.05 (≈ 0.115 µM)
